Laboratory results from PMC11953309 (Nature Communications, 2025).

System: IBD mouse fecal-derived ex vivo microbial community
Test: Ex vivo screening on IBD mouse fecal-derived microbial community
Assay type: cell-based, IL-10-deficient C57BL/6N mouse

SMILES: CN[C@H](CC(C)C)C(=O)N[C@H]1C(=O)N[C@@H](CC(N)=O)C(=O)N[C@H]2C(=O)N[C@H]3C(=O)N[C@H](C(=O)N[C@H](C(=O)O)c4cc(O)cc(O)c4-c4cc3ccc4O)[C@H](O)c3ccc(c(Cl)c3)Oc3cc2cc(c3O[C@@H]2O[C@H](CO)[C@@H](O)[C@H](O)[C@H]2O[C@H]2C[C@](C)(N)[C@H](O)[C@H](C)O2)Oc2ccc(cc2Cl)[C@H]1O [vancomycin]
- Number of differentially abundant species (10 μg/mL, 48 h anaerobic, mGAM, MaAsLin2 vs blank, FDR-adjusted p < 0.05, n = 3): 73
- beta diversity (PCoA, Bray-Curtis) clustering vs blank (AIPs 10 μg/mL, vancomycin 1 μg/mL and 10 μg/mL, 48 h): notable differences
